Tests used:
[1] = Antihypoxic effect: survival time under hypobaric hypoxic conditions (170 mmHg); type: in vivo, rats (male SHR); details: for Antihypoxic effect, survival time as % of the control: rats, 60 min before, control 3.3 ± 0.19 min
Experimental: (§1) The studies were carried out on male SHR rats weighing 160 to 180 g as well as on CFLP mice of both sexes weighing 18 to 21 g. The compounds to be tested were orally administered in a volume of 5 ml/kg of body-weight (in the case of rats) or in a volume of 10 ml/kg of body-weight (in case of mice) at the 60th minute before beginning the experiment.
(§2) The results are expressed as percentages.
Investigation of the antihypoxic effect
[I. Baumel et al.: Proc. Soc. Exp. Ther. Biol. N.Y. 132, 629 (1969]
Rats (n=5) were treated with various doses of the compounds to be tested and after 60 minutes the survival time was measured under hypobaric hypoxic conditions (170 mmHg). In the Table, the survival time is expressed as the percentage of that of the control group.

α2-adrenergic receptor [2] = molecular target: T1, α2-adrenergic receptor (Rattus norvegicus, UniProt P22909); test: biochemical
T1 sequence (P22909 1-465): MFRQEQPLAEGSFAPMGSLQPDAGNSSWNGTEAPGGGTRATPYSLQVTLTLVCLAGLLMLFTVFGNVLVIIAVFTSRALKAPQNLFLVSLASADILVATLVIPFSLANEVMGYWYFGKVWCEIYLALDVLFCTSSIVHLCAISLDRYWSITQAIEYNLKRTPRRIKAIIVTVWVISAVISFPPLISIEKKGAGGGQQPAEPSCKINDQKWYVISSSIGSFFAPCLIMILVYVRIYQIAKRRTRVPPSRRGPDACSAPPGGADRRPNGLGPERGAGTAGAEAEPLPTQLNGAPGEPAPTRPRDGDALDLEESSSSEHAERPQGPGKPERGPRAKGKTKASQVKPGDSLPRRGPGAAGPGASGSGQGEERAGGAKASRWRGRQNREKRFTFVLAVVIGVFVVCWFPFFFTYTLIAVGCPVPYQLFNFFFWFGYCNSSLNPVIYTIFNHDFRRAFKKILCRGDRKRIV
Experimental: (§3) For the determination of the non-specific binding, 10 μmoles of phentolamine were used. Investigation of the α2 -adrenergic receptor binding
(§4) Hannover Wistar rats were decapitated, their cortexes were prepared and homogenized in a 30-fold volume of a buffer solution (50 μmoles of TRIS HCl, at pH 7.4). The membrane was centrifuged at 45000 g twice for 15 minutes and then suspended in the buffer in a concentration of 50 ml/g (in a protein concentration of 0.9 to 1.0 mg/ml).
(§5) For investigating the α2 -receptor binding, a membrane preparation, a ligand (1.0 nmole of ^3 H Rx 781094=^3 H-1 dazoxane) and the compound to be tested were used in a total volume of 1 ml. After an incubation at 23° C. for 20 minutes, the samples were filtered through a Whatman GF/B filter and washed 4 times with 4 ml of buffer solution each.
(§6) For the determination of the non-specific binding, 10 μmoles of phentolamine were used.

α2-adrenergic receptor [3] = molecular target: T1, α2-adrenergic receptor; details: versus nicergoline
Experimental: as §3, §4, §5, §6

α1-adrenergic receptor = α1-adrenergic receptor binding (3H-prazosine); design: species or system Hannover Wistar rats; details: for IC50 value of α-adrenergic receptor activity (in words) / α-adrenergic receptor activity compared between 2-chloronicergoline and nicergoline (in words): Table 2 discussion; for IC50: rat cortex membrane, 0.5 nmole 3H-prazosine, 23° C., 30 min, pH 8
[4] = test system: 45Ca2+ uptake into synaptosomes; test: 45Ca2+ uptake into synaptosomes; type: biochemical; details: rat brain cortex synaptosomes, K+ (45 mmoles) induced, 37° C., pre-incubation 20 min; read-out: IC50 45Ca2+ (synaptosomal uptake)
Experimental: Investigation of the ^45 Ca^2+ uptake into synaptosomes
The synaptosomal fraction was prepared from rat brain cortex according to the method of Wu et al. [J. Neurochem. 39, 700 (1982)], with a protein content of 20 mg/ml.
For the experiment, a buffer solution (112 mmoles of NaCl, 5 mmoles of KCl, 1.3 mmoles of MgCl2, 1.2 mmoles of NaH2 PO4, 1.2 mmoles of CaCl2, 10 mmoles of glucose and 20 mmoles of TRIS adjusted to pH 7 by carbogen at 37° C.) was used. The mixture containing the buffer solution, the compound to be tested and 1 mg of synaptosomes in a total volume of 1 ml was pre-incubated at 37° C. for 20 minutes and then, the K^+ (45 mmoles) induced ^45 Ca^2+ […] and, for control, the Na^+ (45 mmoles) induced ^45 Ca^2+ uptake were measured. The reaction was stopped by adding 5 ml of a buffer solution (120 mmoles of NaCl, 5 mmoles of KCl, 5 mmoles of EGTA and 20 mmoles of TRIS, at pH 7.4). […] The radioactivity remaining on the filter was determined in 10 ml of scintillation solution.

[5] = Learning-facilitating effect: one-trial passive avoidance; type: in vivo, mice (CFLP); details: for Facilitation of learning, avoidance latency period as % of the control: 5.0 mg/kg p.o., mice, retest after one week, control latency 164.0 ± 34.4 sec (nicergoline), 77.0 ± 16.4 sec (2-chloronicergoline)
Experimental: as §1, §2
Investigation of the learning-facilitating effect
[W. B. Essmann and H. Alpern: Psychol. Rep. 41, 731 (1964)]
Mice (n=10) were treated with 5 mg/kg doses of the compounds to be tested, then the animals were conditioned by the one-trial passive avoidance method. The animals were placed on the platform of the test box, whereupon after entering into the dark box, they received an electric footshock (1.5 mA, 0.3 sec). One week later, the animals were retested: the mean of the latency period of the entering (avoidance) was compared to the control value and expressed as the percentage thereof.

D-2 receptor = molecular target: T2, D-2 receptor (Rattus norvegicus, UniProt P61169); test: D-2 receptor binding (3H-spiroperidol); design: species or system Hannover Wistar rats; details: for IC50: rat striatum, 0.5 nmole 3H-spiroperidol, 37° C., 15 min, pH 7.4
T2 construct: the striatum from their cortex was prepared; from tissue; host or cells: striatum membranes of Hannover Wistar rats
T2 sequence (P61169 whole entry): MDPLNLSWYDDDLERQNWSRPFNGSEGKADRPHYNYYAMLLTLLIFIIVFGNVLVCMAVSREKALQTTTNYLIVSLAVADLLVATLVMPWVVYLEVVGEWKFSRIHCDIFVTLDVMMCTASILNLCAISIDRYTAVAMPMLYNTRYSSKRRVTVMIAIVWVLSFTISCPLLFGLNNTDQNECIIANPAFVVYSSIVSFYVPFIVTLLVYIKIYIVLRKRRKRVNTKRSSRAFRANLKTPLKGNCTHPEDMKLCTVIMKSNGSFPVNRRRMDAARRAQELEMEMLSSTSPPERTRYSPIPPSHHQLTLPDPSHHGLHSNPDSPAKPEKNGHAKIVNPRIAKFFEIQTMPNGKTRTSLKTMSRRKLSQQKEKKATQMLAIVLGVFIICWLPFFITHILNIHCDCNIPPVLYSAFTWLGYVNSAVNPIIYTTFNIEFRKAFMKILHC
Experimental: Investigation of the D-2 receptor binding
Hannover Wistar rats were decapitated and the striatum from their cortex was prepared. The striata were homogenized in a 10-fold volume of a cold buffer solution (50 mmoles of TRIS HCl, 120 mmoles of NaCl, 2 mmoles of KCl, 1 mmole of MgCl2 and 5 mmoles of CaCl2 at pH 7.4) and centrifuged at 45000 g for 15 minutes.
For investigating the D-2 receptor binding, a membrane preparation, a buffer, a ligand (0.5 nmole of ^3 H-spiroperidol) and the compound to be tested in a defined concentration were used in a total volume of 2 ml.

[6] = Antagonism of the acquisition-inhibitory effect of hypoxia (shuttle box, normobaric hypoxia, 6% O2); type: in vivo, rats (male SHR); details: for Antagonism of the acquisition-inhibitory effect of hypoxia, CAR Δ %: rats, third day, 6% O2
Experimental: as §1, §2
Antagonism of the acquisition-inhibitory effect of hypoxia
Rats (n=4) were daily treated with various doses of the compounds to be tested, then conditioned in an automatic six-channel shuttle box (VKI) for 3 days [with the following parameters: 50 cycles/day, 15 seconds intersignal period, 15 seconds light stimulus, 10 seconds light and electric footshock (0.8 mA)] under normobaric hypoxic conditions (6% O2). The values of the conditioned avoidance responses on the third day were expressed as the percentage of the deviation from the control value (CAR Δ%).

[7] = literature; cited from earlier work
α-adrenergic receptor = details: Bernardi et al. 1975; cited from earlier work

SMILES | hypoxic tolerance (in words) ([1]; 1.0 mg/kg) | Antihypoxic effect, survival time as % of the control ([1]; 1.0 mg/kg p.o.) | Antihypoxic effect, survival time as % of the control ([1]; 2.5 mg/kg p.o.) | IC50 (α2-adrenergic receptor [2]) | α2-adrenoceptor activity, times as high as that of nicergoline (α2-adrenergic receptor [3]) | IC50 value of α-adrenergic receptor activity (in words) (α1-adrenergic receptor) | α-adrenergic receptor activity compared between 2-chloronicergoline and nicergoline (in words) (α1-adrenergic receptor) | IC50 (α1-adrenergic receptor) | α-adrenoceptor selectivity (in words) (α1-adrenergic receptor; shown by D-2/α1 selectivity ratio) | IC50 [4] | Facilitation of learning, avoidance latency period as % of the control [5] | learning-facilitating effect compared with nicergoline (in words) ([5]; same doses, versus nicergoline) | IC50 (D-2 receptor) | Selectivity ratio D-2/α1 (D-2 receptor; ratio of IC50 values) | D-2 receptor activity, times lower than that of nicergoline (D-2 receptor; versus nicergoline) | Antagonism of the acquisition-inhibitory effect of hypoxia, CAR Δ % ([6]; 2.5 mg/kg p.o.) | dose normalizing deteriorated performance under normobaric hypoxia, times lower than that of nicergoline ([6]; versus nicergoline) | vasodilatory effect (in words) [7] | α-adrenerg blocking effect (in words) (α-adrenergic receptor) | Antagonism of the acquisition-inhibitory effect of hypoxia, CAR Δ % ([6]; 10.0 mg/kg p.o.)
CO[C@]12C[C@@H](COC(=O)c3cncc(Br)c3)CN(C)[C@@H]1Cc1c(Cl)n(C)c3cccc2c13 [2-Chloronicergoline, 2-chloronicergoline] | significantly increased | 155% | 276% | 24.2 nM | about 13 times | low | practically identical | 9.5 nM | pronounced | 7000 nM | 182% | significantly better than that of nicergoline | 877 nM | 92.3 nmole/nmole | 12 times | 150% | 4 times |  |  | 
CO[C@]12C[C@@H](COC(=O)c3cncc(Br)c3)CN(C)[C@@H]1Cc1c(Br)n(C)c3cccc2c13 [2-bromonicergoline] |  |  |  |  |  |  |  |  |  |  |  |  |  |  |  |  |  | vasodilatory | α-adrenerg blocking effect | 
CO[C@]12C[C@@H](COC(=O)c3cncc(Br)c3)CN(C)[C@@H]1Cc1cn(C)c3cccc2c13 [Nicergoline, 1,6-dimethyl-10α-methoxyergoline-8β-methanol 5-bromonicotinate] |  | 103% | 109% | 176 nM |  | low | practically identical | 5.3 nM |  | 26700 nM | 131% |  | 71.4 nM |  |  |  |  | peripheral vasodilatory agent |  | 150%
